Data taken from the supplement of paper PMC10307832.

Experiments:
Test in all cases: relative viability (nuclei count vs DMSO), 5 days (fraction); higher = more cells survive
Seliciclib + Navitoclax = compound: CC[C@H](CO)Nc1nc(NCc2ccccc2)c2ncn(C(C)C)c2n1 [Seliciclib] + CC1(C)CCC(c2ccc(Cl)cc2)=C(CN2CCN(c3ccc(C(=O)NS(=O)(=O)c4ccc(N[C@H](CCN5CCOCC5)CSc5ccccc5)c(S(=O)(=O)C(F)(F)F)c4)cc3)CC2)C1 [Navitoclax] (partner 0.5 µM)
Method in brief: (§1)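 Medians of duplicate plates are given as relative viability. That measure is the nuclei count in treated wells divided by the count in vehicle wells. Counts were taken on 4× images of lung cancer cell lines in 1536-well plates, 5 days after pin-tool dosing the day after seeding with one drug alone or a fixed anchor-drug dose plus five library-drug doses (not always all listed) in √10 steps.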

Seliciclib + Vorinostat = compound: CC[C@H](CO)Nc1nc(NCc2ccccc2)c2ncn(C(C)C)c2n1 [Seliciclib] + O=C(CCCCCCC(=O)Nc1ccccc1)NO [Vorinostat] (partner 1 µM)
Method in brief: as §1

Seliciclib + Pemetrexed = compound: CC[C@H](CO)Nc1nc(NCc2ccccc2)c2ncn(C(C)C)c2n1 [Seliciclib] + Nc1nc2[nH]cc(CCc3ccc(C(=O)N[C@@H](CCC(=O)O)C(=O)O)cc3)c2c(=O)[nH]1 [Pemetrexed] (partner 0.2 µM)
Method in brief: as §1

Seliciclib + Linsitinib = compound: CC[C@H](CO)Nc1nc(NCc2ccccc2)c2ncn(C(C)C)c2n1 [Seliciclib] + C[C@]1(O)C[C@@H](c2nc(-c3ccc4ccc(-c5ccccc5)nc4c3)c3c(N)nccn32)C1 [Linsitinib] (partner 1 µM)
Method in brief: as §1

Cell Line | relative viability (Seliciclib + Navitoclax; first compound 0.08 µM) | relative viability (Seliciclib + Navitoclax; first compound 0.253 µM) | relative viability (Seliciclib + Navitoclax; first compound 0.8 µM) | relative viability (Seliciclib + Navitoclax; first compound 2.53 µM) | relative viability (Seliciclib + Navitoclax; first compound 8 µM) | relative viability (Seliciclib + Vorinostat; first compound 0.08 µM) | relative viability (Seliciclib + Vorinostat; first compound 0.253 µM) | relative viability (Seliciclib + Vorinostat; first compound 0.8 µM) | relative viability (Seliciclib + Vorinostat; first compound 2.53 µM) | relative viability (Seliciclib + Vorinostat; first compound 8 µM) | relative viability (Seliciclib + Pemetrexed; first compound 0.08 µM) | relative viability (Seliciclib + Pemetrexed; first compound 0.253 µM) | relative viability (Seliciclib + Pemetrexed; first compound 0.8 µM) | relative viability (Seliciclib + Pemetrexed; first compound 2.53 µM) | relative viability (Seliciclib + Pemetrexed; first compound 8 µM) | relative viability (Seliciclib + Linsitinib; first compound 0.08 µM) | relative viability (Seliciclib + Linsitinib; first compound 0.253 µM) | relative viability (Seliciclib + Linsitinib; first compound 0.8 µM) | relative viability (Seliciclib + Linsitinib; first compound 2.53 µM) | relative viability (Seliciclib + Linsitinib; first compound 8 µM)
NCI-H1793 | 0.432 | 0.335 | 0.326 | 0.511 | 0.313 | 0.707 | 0.718 | 0.59 | 0.716 | 0.439 | 0.842 | 0.741 | 0.77 | 0.857 | 0.912 | 0.784 | 0.545 | 0.79 | 1.16 | 0.743
NCI-H1915 | 0.776 | 0.779 | 0.759 | 0.8 | 0.618 | 0.499 | 0.532 | 0.611 | 0.492 | 0.421 | 0.483 | 0.483 | 0.492 | 0.604 | 0.514 | 1.11 | 1.14 | 1.14 | 1.12 | 0.885
NCI-H1944 | 0.987 | 1.01 | 0.946 | 1.11 | 0.871 | 0.562 | 0.527 | 0.466 | 0.552 | 0.338 | 0.575 | 0.634 | 0.453 | 0.608 | 0.428 | 1.08 | 1.19 | 1.09 | 1.17 | 0.904
NCI-H1975 | 1 | 0.959 | 1.05 | 1.12 | 0.878 | 0.689 | 0.608 | 0.66 | 0.652 | 0.46 | 0.274 | 0.328 | 0.281 | 0.331 | 0.267 | 1.03 | 0.865 | 0.975 | 0.819 | 0.6
NCI-H1993 | 0.937 | 0.635 | 0.927 | 0.962 | 0.849 | 0.836 | 0.931 | 0.883 | 0.559 | 0.498 | 0.601 | 0.597 | 0.608 | 0.507 | 0.456 | 0.746 | 0.749 | 0.768 | 0.724 | 0.713
NCI-H2009 | 1.14 | 1.17 | 1.13 | 1.2 | 1.08 | 0.742 | 0.862 | 0.753 | 0.687 | 0.671 | 1.08 | 1.17 | 1.03 | 0.981 | 1.02 | 1.24 | 1.16 | 1.09 | 1.19 | 1.19
NCI-H2023 | 0.895 | 0.853 | 0.967 | 0.949 | 0.891 | 0.641 | 0.736 | 0.649 | 0.5 | 0.43 | 0.261 | 0.276 | 0.229 | 0.181 | 0.222 | 0.642 | 0.574 | 0.633 | 0.746 | 0.572
NCI-H2085 | 1.13 | 1.16 | 1.14 | 1.05 | 0.965 | 0.763 | 0.762 | 0.756 | 0.74 | 0.556 | 0.979 | 1.01 | 0.856 | 0.935 | 0.727 | 0.808 | 0.805 | 0.928 | 0.856 | 0.763
NCI-H2087 | 0.914 | 0.879 | 0.991 | 0.879 | 0.696 | 0.802 | 0.677 | 0.686 | 0.725 | 0.314 | 0.635 | 0.591 | 0.673 | 0.652 | 0.639 | 0.896 | 0.991 | 1 | 0.867 | 0.862
NCI-H2126 | 0.817 | 0.799 | 0.844 | 0.878 | 0.787 | 0.806 | 0.783 | 0.579 | 0.375 | 0.611 | 0.631 | 0.683 | 0.682 | 0.515 | 0.542 | 0.718 | 0.711 | 0.698 | 0.721 | 0.716
NCI-H2228 | 0.562 | 0.447 | 0.913 | 0.735 | 0.653 | 0.585 | 0.521 | 0.58 | 0.586 | 0.335 | 0.325 | 0.326 | 0.337 | 0.34 | 0.344 | 0.848 | 0.491 | 0.612 | 0.564 | 0.57
NCI-H2347 | 0.763 | 0.801 | 0.73 | 0.859 | 0.568 | 0.595 | 0.656 | 0.443 | 0.566 | 0.432 | 0.409 | 0.454 | 0.419 | 0.437 | 0.42 | 1.05 | 0.995 | 0.849 | 1 | 0.922
NCI-H2405 | 0.666 | 0.71 | 0.754 | 0.717 | 0.631 | 1.06 | 1.2 | 0.98 | 0.742 | 0.739 | 1.05 | 1.23 | 1.07 | 0.825 | 0.83 | 0.978 | 0.962 | 0.863 | 0.941 | 0.793
NCI-H3122 | 1.02 | 1.07 | 1.01 | 1.03 | 0.903 | 0.925 | 0.979 | 0.759 | 1.09 | 0.86 | 0.207 | 0.211 | 0.177 | 0.205 | 0.228 | 0.966 | 1.03 | 0.987 | 1.05 | 0.94
PC-3 [JPC-3] | 0.829 | 0.84 | 0.77 | 0.786 | 0.751 | 0.796 | 0.957 | 0.876 | 0.601 | 0.633 | 1.11 | 1.17 | 1.08 | 0.995 | 0.968 | 0.954 | 0.994 | 1 | 0.915 | 0.893
PC-14 | 0.988 | 1.04 | 0.959 | 1.09 | 0.767 | 0.663 | 0.747 | 0.744 | 0.644 | 0.625 | 0.125 | 0.147 | 0.166 | 0.143 | 0.122 | 0.922 | 0.921 | 0.936 | 0.994 | 0.845
